Source: ChEMBL document CHEMBL1155121, “4-Hydroxy-5-pyrrolinone-3-carboxamide HIV-1 integrase inhibitors” (Bioorg Med Chem Lett, 2008)
Calls of active or inactive are those of the source. The calls are words filed in the database; no cut-off is given here.

Key:
[1] = target: Human immunodeficiency virus type 1 integrase (Human immunodeficiency virus 1, UniProt Q7ZJM1); experiment: Inhibition of recombinant HIV1 integrase strand transfer activity
[2] = tested on: Human immunodeficiency virus 1; experiment: Antiviral activity against HIV1 in human MT4 cells at 25 uM; format: functional
MT4 = experiment: Cytotoxicity against human MT4 cells up to 20 uM; format: cell-based
Plasma = experiment: Fraction unbound in human plasma; format: ADME, cell-free

Human immunodeficiency virus type 1 integrase, sequence (Q7ZJM1 whole entry): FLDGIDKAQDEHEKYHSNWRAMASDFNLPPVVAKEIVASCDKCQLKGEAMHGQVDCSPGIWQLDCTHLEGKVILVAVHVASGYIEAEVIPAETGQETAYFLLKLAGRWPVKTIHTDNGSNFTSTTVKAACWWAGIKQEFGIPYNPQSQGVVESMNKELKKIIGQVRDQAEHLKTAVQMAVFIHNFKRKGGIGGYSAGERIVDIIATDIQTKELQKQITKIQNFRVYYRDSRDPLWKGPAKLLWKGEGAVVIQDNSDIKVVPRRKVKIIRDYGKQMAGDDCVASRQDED

Row | Compound | IC50 [1] [nM] | Fu (Plasma) [%] | Activity [2] | Activity (MT4)
1 | O=C(NCc1ccc(F)cc1)C1=C(O)C(=O)N(CCN2CCOCC2)C1C(=O)NCc1ccc(F)cc1 (stereo not drawn) | > 1000 | – | inactive | Not Active
2 | CN1C(=O)C(O)=C(C(=O)NCc2ccc(F)cc2)C1c1ccccc1 (stereo not drawn) | > 1000 | – | inactive | Not Active
3 | O=C(NCc1ccc(F)cc1)C1=C(O)C(=O)N(Cc2ccccn2)C1 | 94 | < 1 | inactive | Not Active
4 | COc1ccccc1CCN1CC(C(=O)NCc2ccc(F)cc2)=C(O)C1=O | 4 | – | inactive | Not Active
5 | O=C(NCc1ccc(F)cc1)C1=C(O)C(=O)N(Cc2ccccc2)C1 | 100 | – | inactive | Not Active

Now from value to molecule, other results behind:

Row | IC50 [1] [nM] | Fu (Plasma) [%] | Compound | Activity [2] | Activity (MT4)
6 | 6 | – | Cc1cccc(CN2CC(C(=O)NCc3ccc(F)cc3)=C(O)C2=O)c1 | inactive | Not Active
7 | 18 | – | O=C(NCc1ccc(F)cc1)C1=C(O)C(=O)N2CCCCC12 (stereo not drawn) | 35% | Not Active
8 | > 1000 | – | O=C(NCc1ccc(F)cc1)C1=C(O)C(=O)N(CCN2CCCCC2)C1 | inactive | Not Active
9 | 5 | – | O=C(NCc1ccc(F)cc1)C1=C(O)C(=O)N(CCCc2ccccc2)C1 | inactive | Not Active
